Key:
Format in all cases: in vivo
[1] = system: Amaranthus retoflexus (AMARE); experiment: Pre-emergence herbicidal test; conditions: 1000 g/ha, evaluated after 13 days
Setaria faberi (SETFA) [2] = experiment: Pre-emergence herbicidal test; conditions: 1000 g/ha, evaluated after 13 days
[3] = system: Echinochloa crus-galli (ECHCG); experiment: Pre-emergence herbicidal test; conditions: 1000 g/ha, evaluated after 13 days
[4] = system: Ipomoea hederacea (IPOHE); experiment: Pre-emergence herbicidal test; conditions: 1000 g/ha, evaluated after 13 days
[5] = system: Abutilon theophrasti (ABUTH); experiment: Pre-emergence herbicidal test; conditions: 1000 g/ha, evaluated after 13 days
Zea mays (ZEAMX) [6] = experiment: Pre-emergence herbicidal test; conditions: 1000 g/ha, evaluated after 13 days
[7] = system: Abutilon theophrasti (ABUTH); experiment: Post-emergence herbicidal test; conditions: 1000 g/ha unless otherwise stated, evaluated after 13 days
Method in brief: (§1)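 Spray-applied at 1000 g/ha unless stated, in the glasshouse. Damage rated 13 days later on a 0–5 scale.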

[8] = system: Amaranthus retoflexus (AMARE); experiment: Post-emergence herbicidal test; conditions: 1000 g/ha unless otherwise stated, evaluated after 13 days
Method in brief: as §1

[9] = system: Echinochloa crus-galli (ECHCG); experiment: Post-emergence herbicidal test; conditions: 1000 g/ha unless otherwise stated, evaluated after 13 days
Method in brief: as §1

[10] = system: Ipomoea hederacea (IPOHE); experiment: Post-emergence herbicidal test; conditions: 1000 g/ha unless otherwise stated, evaluated after 13 days
Method in brief: as §1

Setaria faberi (SETFA) [11] = experiment: Post-emergence herbicidal test; conditions: 1000 g/ha unless otherwise stated, evaluated after 13 days
Method in brief: as §1

Zea mays (ZEAMX) [12] = experiment: Post-emergence herbicidal test; conditions: 1000 g/ha unless otherwise stated, evaluated after 13 days
Method in brief: as §1

For `CN(C)CCOC(=O)c1nn(-c2ccc(OC(F)(F)F)cc2)c2cccc(S(C)(=O)=O)c2c1=O` [Compound P76, 2-(dimethylamino)ethyl 5-methylsulfonyl-4-oxo-1-[4-(trifluoromethoxy)phenyl]cinnoline-3-carboxylate], the “percentage damage caused to the plant, five-point scale, AMARE” value [1] was 0 (0=0%), the “percentage damage caused to the plant, five-point scale, SETFA” value (Setaria faberi (SETFA) [2]) was 4 (4=61-80%) and the “percentage damage caused to the plant, five-point scale, ECHCG” value [3] was 3 (3=41-60%). The “percentage damage caused to the plant, five-point scale, IPOHE” value [4] was 0 (0=0%), the “percentage damage caused to the plant, five-point scale, ABUTH” value [5] was 1 (1=10-20%) and the “percentage damage caused to the plant, five-point scale, ZEAMX” value (Zea mays (ZEAMX) [6]) was 0 (0=0%). The “percentage damage caused to the plant, ABUTH (five-point scale)” value [7] was 2 (2=21-40%), the “percentage damage caused to the plant, AMARE (five-point scale)” value [8] was 1 (1=10-20%) and the “percentage damage caused to the plant, ECHCG (five-point scale)” value [9] was 3 (3=41-60%). The “percentage damage caused to the plant, IPOHE (five-point scale)” value [10] was 1 (1=10-20%), the “percentage damage caused to the plant, SETFA (five-point scale)” value (Setaria faberi (SETFA) [11]) was 4 (4=61-80%) and the “percentage damage caused to the plant, ZEAMX (five-point scale)” value (Zea mays (ZEAMX) [12]) was 1 (1=10-20%).
In the case of `CC(C)COC(=O)c1nn(-c2ccc(OC(F)(F)F)cc2)c2cccc(S(C)(=O)=O)c2c1=O` [Compound P72, isobutyl 5-methylsulfonyl-4-oxo-1-[4-(trifluoromethoxy)phenyl]cinnoline-3-carboxylate], the “percentage damage caused to the plant, five-point scale, AMARE” value [1] is reported as 0 (0=0%), the “percentage damage caused to the plant, five-point scale, SETFA” value (Setaria faberi (SETFA) [2]) is reported as 4 (4=61-80%) and the “percentage damage caused to the plant, five-point scale, ECHCG” value [3] is reported as 4 (4=61-80%). The “percentage damage caused to the plant, five-point scale, IPOHE” value [4] was 0 (0=0%), the “percentage damage caused to the plant, five-point scale, ABUTH” value [5] was 0 (0=0%) and the “percentage damage caused to the plant, five-point scale, ZEAMX” value (Zea mays (ZEAMX) [6]) was 0 (0=0%). For the same compound, the “percentage damage caused to the plant, ABUTH (five-point scale)” value [7] was 0 (0=0%), the “percentage damage caused to the plant, AMARE (five-point scale)” value [8] was 0 (0=0%) and the “percentage damage caused to the plant, ECHCG (five-point scale)” value [9] was 3 (3=41-60%). For the same compound, the “percentage damage caused to the plant, IPOHE (five-point scale)” value [10] was 1 (1=10-20%), the “percentage damage caused to the plant, SETFA (five-point scale)” value (Setaria faberi (SETFA) [11]) was 4 (4=61-80%) and the “percentage damage caused to the plant, ZEAMX (five-point scale)” value (Zea mays (ZEAMX) [12]) was 1 (1=10-20%).
`COC(=O)c1nn(-c2ccc(OC(F)(F)F)cc2)c2cc(OC)cc(SC)c2c1=O` [Compound P56, methyl 7-methoxy-5-methylsulfanyl-4-oxo-1-[4-(trifluoromethoxy)phenyl]cinnoline-3-carboxylate] was tested, and the “percentage damage caused to the plant, five-point scale, AMARE” value [1] was 0 (0=0%), the “percentage damage caused to the plant, five-point scale, SETFA” value (Setaria faberi (SETFA) [2]) was 0 (0=0%) and the “percentage damage caused to the plant, five-point scale, ECHCG” value [3] was 0 (0=0%). The “percentage damage caused to the plant, five-point scale, IPOHE” value [4] was 0 (0=0%), the “percentage damage caused to the plant, five-point scale, ABUTH” value [5] was 0 (0=0%) and the “percentage damage caused to the plant, five-point scale, ZEAMX” value (Zea mays (ZEAMX) [6]) was 0 (0=0%). For the same compound, the “percentage damage caused to the plant, ABUTH (five-point scale)” value [7] was 0 (0=0%), the “percentage damage caused to the plant, AMARE (five-point scale)” value [8] was 1 (1=10-20%) and the “percentage damage caused to the plant, ECHCG (five-point scale)” value [9] was 0 (0=0%). For the same compound, the “percentage damage caused to the plant, IPOHE (five-point scale)” value [10] was 0 (0=0%), the “percentage damage caused to the plant, SETFA (five-point scale)” value (Setaria faberi (SETFA) [11]) was 0 (0=0%) and the “percentage damage caused to the plant, ZEAMX (five-point scale)” value (Zea mays (ZEAMX) [12]) was 0 (0=0%).
`CS(=O)(=O)c1cccc2c1c(=O)c(C(=O)SCCCc1ccccc1)nn2-c1ccc(OC(F)(F)F)cc1` [Compound P92, S-(3-phenylpropyl) 5-methyslulfonyl-4-oxo-1-[4-(trifluoromethoxy)phenyl]cinnoline-3-carbothioate] was tested, and the “percentage damage caused to the plant, five-point scale, AMARE” value [1] was 1 (1=10-20%), the “percentage damage caused to the plant, five-point scale, SETFA” value (Setaria faberi (SETFA) [2]) was 3 (3=41-60%) and the “percentage damage caused to the plant, five-point scale, ECHCG” value [3] was 1 (1=10-20%). For the same compound, the “percentage damage caused to the plant, five-point scale, IPOHE” value [4] was 0 (0=0%), the “percentage damage caused to the plant, five-point scale, ABUTH” value [5] was 1 (1=10-20%) and the “percentage damage caused to the plant, five-point scale, ZEAMX” value (Zea mays (ZEAMX) [6]) was 0 (0=0%). The “percentage damage caused to the plant, ABUTH (five-point scale)” value [7] was 2 (2=21-40%), the “percentage damage caused to the plant, AMARE (five-point scale)” value [8] was 1 (1=10-20%) and the “percentage damage caused to the plant, ECHCG (five-point scale)” value [9] was 3 (3=41-60%). The “percentage damage caused to the plant, IPOHE (five-point scale)” value [10] was 2 (2=21-40%), the “percentage damage caused to the plant, SETFA (five-point scale)” value (Setaria faberi (SETFA) [11]) was 3 (3=41-60%) and the “percentage damage caused to the plant, ZEAMX (five-point scale)” value (Zea mays (ZEAMX) [12]) was 1 (1=10-20%).
For `C#CCCOC(=O)c1nn(-c2ccc(OC(F)(F)F)cc2)c2cccc(S(C)(=O)=O)c2c1=O` [Compound P71, but-3-ynyl 5-methylsulfonyl-4-oxo-1-[4-(trifluoromethoxy)phenyl]cinnoline-3-carboxylate], the “percentage damage caused to the plant, five-point scale, AMARE” value [1] was 0 (0=0%), the “percentage damage caused to the plant, five-point scale, SETFA” value (Setaria faberi (SETFA) [2]) was 5 (5=81-100%) and the “percentage damage caused to the plant, five-point scale, ECHCG” value [3] was 4 (4=61-80%). For the same compound, the “percentage damage caused to the plant, five-point scale, IPOHE” value [4] was 0 (0=0%), the “percentage damage caused to the plant, five-point scale, ABUTH” value [5] was 0 (0=0%) and the “percentage damage caused to the plant, five-point scale, ZEAMX” value (Zea mays (ZEAMX) [6]) was 0 (0=0%). The “percentage damage caused to the plant, ABUTH (five-point scale)” value [7] was 0 (0=0%), the “percentage damage caused to the plant, AMARE (five-point scale)” value [8] was 0 (0=0%) and the “percentage damage caused to the plant, ECHCG (five-point scale)” value [9] was 3 (3=41-60%). For the same compound, the “percentage damage caused to the plant, IPOHE (five-point scale)” value [10] was 1 (1=10-20%), the “percentage damage caused to the plant, SETFA (five-point scale)” value (Setaria faberi (SETFA) [11]) was 3 (3=41-60%) and the “percentage damage caused to the plant, ZEAMX (five-point scale)” value (Zea mays (ZEAMX) [12]) was 1 (1=10-20%).
With `CS(=O)(=O)c1cccc2c1c(=O)c(C(=O)OC1CCOC1)nn2-c1ccc(OC(F)(F)F)cc1` (stereo not drawn) [Compound P70, tetrahydrofuran-3-yl 5-methylsulfonyl-4-oxo-1-[4-(trifluoromethoxy)phenyl]cinnoline-3-carboxylate] the “percentage damage caused to the plant, five-point scale, AMARE” value [1] was 0 (0=0%), the “percentage damage caused to the plant, five-point scale, SETFA” value (Setaria faberi (SETFA) [2]) was 4 (4=61-80%) and the “percentage damage caused to the plant, five-point scale, ECHCG” value [3] was 3 (3=41-60%). For the same compound, the “percentage damage caused to the plant, five-point scale, IPOHE” value [4] was 0 (0=0%), the “percentage damage caused to the plant, five-point scale, ABUTH” value [5] was 0 (0=0%) and the “percentage damage caused to the plant, five-point scale, ZEAMX” value (Zea mays (ZEAMX) [6]) was 1 (1=10-20%). The “percentage damage caused to the plant, ABUTH (five-point scale)” value [7] was 1 (1=10-20%), the “percentage damage caused to the plant, AMARE (five-point scale)” value [8] was 0 (0=0%) and the “percentage damage caused to the plant, ECHCG (five-point scale)” value [9] was 3 (3=41-60%). The “percentage damage caused to the plant, IPOHE (five-point scale)” value [10] was 0 (0=0%), the “percentage damage caused to the plant, SETFA (five-point scale)” value (Setaria faberi (SETFA) [11]) was 4 (4=61-80%) and the “percentage damage caused to the plant, ZEAMX (five-point scale)” value (Zea mays (ZEAMX) [12]) was 0 (0=0%).
For `COc1ccc2c(c1S(C)(=O)=O)c(=O)c(C(=O)O)nn2-c1ccc(OC(F)(F)F)cc1` [Compound P18, 6-methoxy-5-methylsulfonyl-4-oxo-1-[4-(trifluoromethoxy)phenyl]cinnoline-3-carboxylic acid], the “percentage damage caused to the plant, five-point scale, AMARE” value [1] was 0 (0=0%), the “percentage damage caused to the plant, five-point scale, SETFA” value (Setaria faberi (SETFA) [2]) was 0 (0=0%) and the “percentage damage caused to the plant, five-point scale, ECHCG” value [3] was 1 (1=10-20%). For the same compound, the “percentage damage caused to the plant, five-point scale, IPOHE” value [4] was 0 (0=0%), the “percentage damage caused to the plant, five-point scale, ABUTH” value [5] was 0 (0=0%) and the “percentage damage caused to the plant, five-point scale, ZEAMX” value (Zea mays (ZEAMX) [6]) was 1 (1=10-20%). The “percentage damage caused to the plant, ABUTH (five-point scale)” value [7] was 1 (1=10-20%), the “percentage damage caused to the plant, AMARE (five-point scale)” value [8] was 1 (1=10-20%) and the “percentage damage caused to the plant, ECHCG (five-point scale)” value [9] was 1 (1=10-20%). For the same compound, the “percentage damage caused to the plant, IPOHE (five-point scale)” value [10] was 0 (0=0%), the “percentage damage caused to the plant, SETFA (five-point scale)” value (Setaria faberi (SETFA) [11]) was 2 (2=21-40%) and the “percentage damage caused to the plant, ZEAMX (five-point scale)” value (Zea mays (ZEAMX) [12]) was 1 (1=10-20%).
For `CS(=O)(=O)c1cccc2c1c(=O)c(C(=O)OCC1CC1)nn2-c1ccc(OC(F)(F)F)cc1` [Compound P63, cyclopropylmethyl 5-methylsulfonyl-4-oxo-1-[4-(trifluoromethoxy)phenyl]cinnoline-3-carboxylate], the “percentage damage caused to the plant, five-point scale, AMARE” value [1] was 0 (0=0%), the “percentage damage caused to the plant, five-point scale, SETFA” value (Setaria faberi (SETFA) [2]) was 5 (5=81-100%) and the “percentage damage caused to the plant, five-point scale, ECHCG” value [3] was 3 (3=41-60%). For the same compound, the “percentage damage caused to the plant, five-point scale, IPOHE” value [4] was 0 (0=0%), the “percentage damage caused to the plant, five-point scale, ABUTH” value [5] was 0 (0=0%) and the “percentage damage caused to the plant, five-point scale, ZEAMX” value (Zea mays (ZEAMX) [6]) was 0 (0=0%). The “percentage damage caused to the plant, ABUTH (five-point scale)” value [7] was 0 (0=0%), the “percentage damage caused to the plant, AMARE (five-point scale)” value [8] was 0 (0=0%) and the “percentage damage caused to the plant, ECHCG (five-point scale)” value [9] was 3 (3=41-60%). The “percentage damage caused to the plant, IPOHE (five-point scale)” value [10] was 0 (0=0%), the “percentage damage caused to the plant, SETFA (five-point scale)” value (Setaria faberi (SETFA) [11]) was 4 (4=61-80%) and the “percentage damage caused to the plant, ZEAMX (five-point scale)” value (Zea mays (ZEAMX) [12]) was 0 (0=0%).

Reference: US20230250066A1, “HERBICIDAL CINNOLINE DERIVATIVES” (SYNGENTA CROP PROTECTION AG, priority 2020, published 2023)
